From PubChem BioAssay (NCI)
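Exposure lasted 48 hours, with cells grown in 96-well plates and compounds tested at five concentrations. The concentration for full growth arrest is given as TGI.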

What was measured:
Assay in all cases: inhibition of tumour cell growth, NCI panel, 48 h
M14 melanoma = system: M14 melanoma
K-562 leukemia = system: K-562 leukemia
SR leukemia = system: SR leukemia
HOP-18 NSCLC = system: HOP-18 NSCLC
EKVX NSCLC = system: EKVX NSCLC
OVCAR-5 ovarian = system: OVCAR-5 ovarian
SK-OV-3 ovarian = system: SK-OV-3 ovarian
SW-620 colon = system: SW-620 colon
MDA-MB-435 = system: MDA-MB-435
HS 578T breast = system: HS 578T breast
NCI/ADR-RES ovarian = system: NCI/ADR-RES ovarian
LOX IMVI melanoma = system: LOX IMVI melanoma
NCI-H23 lung = system: NCI-H23 lung
NCI-H226 lung = system: NCI-H226 lung
OVCAR-3 ovarian = system: OVCAR-3 ovarian
COLO 205 colon = system: COLO 205 colon
U251 CNS = system: U251 CNS
SK-MEL-2 melanoma = system: SK-MEL-2 melanoma
NCI-H522 lung = system: NCI-H522 lung
PC-3 prostate = system: PC-3 prostate
DLD-1 colon = system: DLD-1 colon
SNB-75 CNS = system: SNB-75 CNS
SK-MEL-5 melanoma = system: SK-MEL-5 melanoma
MCF7 breast = system: MCF7 breast
SF-268 CNS = system: SF-268 CNS
TK-10 renal = system: TK-10 renal
ACHN renal = system: ACHN renal
SK-MEL-28 melanoma = system: SK-MEL-28 melanoma
HL-60(TB) leukemia = system: HL-60(TB) leukemia
DMS 273 small cell lung = system: DMS 273 small cell lung
DU-145 prostate = system: DU-145 prostate
DMS 114 small cell lung = system: DMS 114 small cell lung
BT-549 breast = system: BT-549 breast
CCRF-CEM leukemia = system: CCRF-CEM leukemia
HOP-62 NSCLC = system: HOP-62 NSCLC
HCC-2998 colon = system: HCC-2998 colon
KM20L2 colon = system: KM20L2 colon
LXFL 529 NSCLC = system: LXFL 529 NSCLC
SN12C renal = system: SN12C renal
UO-31 renal = system: UO-31 renal
RPMI-8226 leukemia = system: RPMI-8226 leukemia
OVCAR-8 ovarian = system: OVCAR-8 ovarian
NCI-H460 lung = system: NCI-H460 lung
A498 renal = system: A498 renal
SNB-78 CNS = system: SNB-78 CNS
HCT-116 colon = system: HCT-116 colon
KM12 colon = system: KM12 colon
T-47D breast = system: T-47D breast
HOP-92 NSCLC = system: HOP-92 NSCLC
786-0 renal = system: 786-0 renal
A549 NSCLC = system: A549 NSCLC
MDA-N = system: MDA-N
MOLT-4 leukemia = system: MOLT-4 leukemia
CAKI-1 renal = system: CAKI-1 renal
HCT-15 colon = system: HCT-15 colon
RXF 393 renal = system: RXF 393 renal
SF-295 CNS = system: SF-295 CNS
OVCAR-4 ovarian = system: OVCAR-4 ovarian
UACC-62 melanoma = system: UACC-62 melanoma
HT29 colon = system: HT29 colon
MDA-MB-231 breast = system: MDA-MB-231 breast
SF-539 CNS = system: SF-539 CNS
SNB-19 CNS = system: SNB-19 CNS
IGROV1 ovarian = system: IGROV1 ovarian
UACC-257 melanoma = system: UACC-257 melanoma
MALME-3M melanoma = system: MALME-3M melanoma

Q: `NC(=Nc1ccccc1)N/N=C/c1c[nH]c2ccccc12` was tested. Which TGI (M14 melanoma) did it give?
A: 1.53 µM

Q: What about the TGI (K-562 leukemia) of the same compound?
A: 30.4 µM

Q: What about the TGI (SR leukemia) of the same compound?
A: > 50.1 µM

Q: What about the TGI (HOP-18 NSCLC) of the same compound?
A: 73 µM

Q: And the TGI (EKVX NSCLC)?
A: 25 µM

Q: And the TGI (OVCAR-5 ovarian)?
A: 15 µM

Q: What about the TGI (SK-OV-3 ovarian) of the same compound?
A: 4.14 µM

Q: What about the TGI (SW-620 colon) of the same compound?
A: 5.02 µM

Q: What about the TGI (MDA-MB-435) of the same compound?
A: 0.0649 µM

Q: What about the TGI (HS 578T breast) of the same compound?
A: 2.17 µM

Q: And the TGI (NCI/ADR-RES ovarian)?
A: 0.455 µM

Q: And the TGI (LOX IMVI melanoma)?
A: 8.92 µM

Q: What about the TGI (NCI-H23 lung) of the same compound?
A: 2.93 µM

Q: What about the TGI (NCI-H226 lung) of the same compound?
A: 16.1 µM

Q: And the TGI (OVCAR-3 ovarian)?
A: 0.314 µM

Q: And the TGI (COLO 205 colon)?
A: 0.67 µM

Q: And the TGI (U251 CNS)?
A: 2.61 µM

Q: What about the TGI (SK-MEL-2 melanoma) of the same compound?
A: 4.95 µM

Q: What about the TGI (NCI-H522 lung) of the same compound?
A: 0.306 µM

Q: And the TGI (PC-3 prostate)?
A: 12.1 µM

Q: What about the TGI (DLD-1 colon) of the same compound?
A: 30.2 µM

Q: And the TGI (SNB-75 CNS)?
A: 5.56 µM

Q: What about the TGI (SK-MEL-5 melanoma) of the same compound?
A: 1.85 µM

Q: What about the TGI (MCF7 breast) of the same compound?
A: 15 µM

Q: What about the TGI (SF-268 CNS) of the same compound?
A: 15 µM

Q: And the TGI (TK-10 renal)?
A: 18.9 µM

Q: What about the TGI (ACHN renal) of the same compound?
A: 16.1 µM

Q: And the TGI (SK-MEL-28 melanoma)?
A: 8.77 µM

Q: What about the TGI (HL-60(TB) leukemia) of the same compound?
A: 4.54 µM

Q: What about the TGI (DMS 273 small cell lung) of the same compound?
A: 13.8 µM

Q: And the TGI (DU-145 prostate)?
A: 2.59 µM

Q: What about the TGI (DMS 114 small cell lung) of the same compound?
A: 2.03 µM

Q: And the TGI (BT-549 breast)?
A: 16.9 µM

Q: What about the TGI (CCRF-CEM leukemia) of the same compound?
A: 41 µM

Q: And the TGI (HOP-62 NSCLC)?
A: 9.47 µM

Q: And the TGI (HCC-2998 colon)?
A: 2.35 µM

Q: What about the TGI (KM20L2 colon) of the same compound?
A: 1.09 µM

Q: What about the TGI (LXFL 529 NSCLC) of the same compound?
A: 14.4 µM

Q: What about the TGI (SN12C renal) of the same compound?
A: 15.6 µM

Q: And the TGI (UO-31 renal)?
A: 12.9 µM

Q: What about the TGI (RPMI-8226 leukemia) of the same compound?
A: 46 µM

Q: What about the TGI (OVCAR-8 ovarian) of the same compound?
A: 3.98 µM

Q: What about the TGI (NCI-H460 lung) of the same compound?
A: 4.41 µM

Q: What about the TGI (A498 renal) of the same compound?
A: 2.12 µM

Q: And the TGI (SNB-78 CNS)?
A: 19.7 µM

Q: And the TGI (HCT-116 colon)?
A: 8.67 µM

Q: What about the TGI (KM12 colon) of the same compound?
A: 5.28 µM

Q: And the TGI (T-47D breast)?
A: 6.89 µM

Q: And the TGI (HOP-92 NSCLC)?
A: 6.01 µM

Q: And the TGI (786-0 renal)?
A: 7.68 µM

Q: And the TGI (A549 NSCLC)?
A: 15.4 µM

Q: And the TGI (MDA-N)?
A: 0.0405 µM

Q: And the TGI (MOLT-4 leukemia)?
A: 48.4 µM

Q: And the TGI (CAKI-1 renal)?
A: 22.9 µM

Q: What about the TGI (HCT-15 colon) of the same compound?
A: 10.1 µM

Q: And the TGI (RXF 393 renal)?
A: 0.701 µM

Q: What about the TGI (SF-295 CNS) of the same compound?
A: 0.423 µM

Q: What about the TGI (OVCAR-4 ovarian) of the same compound?
A: 15 µM

Q: What about the TGI (UACC-62 melanoma) of the same compound?
A: 6.84 µM

Q: What about the TGI (HT29 colon) of the same compound?
A: 1.54 µM

Q: What about the TGI (MDA-MB-231 breast) of the same compound?
A: 6.83 µM

Q: What about the TGI (SF-539 CNS) of the same compound?
A: 1.92 µM

Q: And the TGI (SNB-19 CNS)?
A: 14.8 µM

Q: And the TGI (IGROV1 ovarian)?
A: 32.7 µM

Q: What about the TGI (UACC-257 melanoma) of the same compound?
A: 12.2 µM

Q: And the TGI (MALME-3M melanoma)?
A: 3.74 µM
